US8216821B2, “Regulation of heterologous recombinant protein expression in methylotrophic and methanotrophic bacteria” (National Research Council of Canada, priority 2005, dated 2012)

Legend:
cym and cmt operons = settings: P. putida F1, regulated by cymR; cited from earlier work
repressor protein (cymR) = molecular target: T1, repressor protein (cymR) (Pseudomonas putida, UniProt O33453); test: cumate induction of gfp reporter gene expression in M. extorquens (cymR2) transformed with pCUM-gfp; format: cell-based, Pseudomonas putida F1
T1 construct: expressed in transfected cells; host or cells: Methylobacterium extorquens ATCC 55366, strain cymR2 (two cymR copies integrated by mini-Tn7 under PmxaF), carrying pCUM-gfp
Description: Detection of gene expression Detection of GFP was carried out by fluorescence microscopy, and quantified by using a SPECTRAFluor Plus (TECAN Austria Gmbh, GrodIg, Austria) under excitation and emission wavelengths of 485 and 508 nm, respectively. Concentration of GFP was calculated based on a linear relationship between concentration and fluorescence units determined using solutions of purified GFP (Qbiogene). The biomass (X) was determined by cell dry weight measurement of the samples (Moisture Analyzer MA 30, Sartorius).
(§1) To test the optimal concentration of inducer, cumate, recombinant M. extorquens (cymR2) transformed with pCUM-gfp was grown to mid-log phase (0.8-1.0 units at OD600) at 30° C. followed by induction with cumate at different concentrations. Reporter gene expression was detectable 4 h post induction. Cumate induction was very sensitive since about 47% of reporter gene expression was obtained with 1 μg cumate/ml (FIG. 5). […] Optimum cumate concentration for effective induction of reporter gene expression was 15 μg/ml (ca. 0.1 mM).

M. extorquens (cymR2) = format: cell-based, Methylobacterium extorquens; settings: cumate 1-30 μg/ml
Description: M. extorquens (ATCC 55366) was used for the preparation of the heterologous gene expression host. E. coli strain Top10 was used for cloning and propagation of recombinant DNA and S17-1λpir (recA, thi, pro, hsdR^−M^+ RP4:2-Tc:Mu:Km Tn7, pir lysogen; Sm^R, Tp^R) was used for propagation of the helper plasmid (23). E. coli was cultured in Luria Bertani broth (LB) at 37° C. Strain of M. extorquens was grown in CHOI medium, as previously described (17) and 1% (v/v) methanol was used as sole carbon source. Both media were solidified by 1.8% agar (Difco) when appropriate. Antibiotics were used for E. coli and M. extorquens at the following concentrations (in ug/ml): ampicillin, 100; kanamycin (Km), 40; tetracyclin (Tc), 35.
as §1

T1 sequence (O33453 whole entry): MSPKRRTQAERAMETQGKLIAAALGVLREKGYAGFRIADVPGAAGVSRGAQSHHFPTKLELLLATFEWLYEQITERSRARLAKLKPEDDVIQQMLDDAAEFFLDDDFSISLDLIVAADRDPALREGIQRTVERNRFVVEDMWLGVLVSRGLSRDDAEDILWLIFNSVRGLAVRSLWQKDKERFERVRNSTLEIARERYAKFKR

SMILES | induction of cym/cmt operon expression (cym and cmt operons) | cumate concentration giving maximum gene expression (repressor protein (cymR); FIG. 5, gfp expression) | time post induction at which reporter gene expression was detectable (repressor protein (cymR); cumate at different concentrations) | optimum cumate concentration for effective induction of reporter gene expression (repressor protein (cymR); induced at OD600 0.8-1.0, 30° C.) | optimum cumate concentration for effective induction of reporter gene expression (repressor protein (cymR); molar equivalent of 15 μg/ml) | time post induction of maximum GFP expression (repressor protein (cymR); pCUM-GFP clones, FIG. 7a, cumate 15 μg/ml) | effect on growth (M. extorquens (cymR2))
CC(C)c1ccc(C(=O)O)cc1 [cumate, p-isopropylbenzoate] | Induction is afforded | 15-30 μg cumate/ml | 4 h | 15 µg/mL | ca. 0.1 mM | 30 h | No growth difference
Cc1ccc(C(C)C)cc1 [p-cymene, p-isopropyltoluene] | not | – | – | – | – | – | –
